Our source for the T/C values is PubChem BioAssay AID330 (DTP/NCI, 2004).

The subject of this assay is P388 leukemia ip, CD2F1 mice, survival T/C. Nature of the assay: NCI In Vivo Anticancer Drug Screen. Data for tumor model P388 Leukemia (intraperitoneal) in CD2F1 (CDF1) mice. Conditions: endpoint: median survival time, higher = longer survival. In a few lines: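 Mice carrying the transplanted tumor received test compound or vehicle. Survival was recorded in each group, and the value is the treated-group measurement divided by that of the vehicle-treated control group.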

[1] abbreviates: dose: 50.0 mg/kg/injection, schedule: Q01DX005 (ip), vehicle: saline with Tween-80.
The mark [2] stands for this setting: dose: 100.0 mg/kg/injection, schedule: Q01DX005 (ip), vehicle: saline with Tween-80.
Where [3] appears, read: dose: 200.0 mg/kg/injection, schedule: Q01DX005 (ip), vehicle: saline with Tween-80.
[4] abbreviates: dose: 60.0 mg/kg/injection, schedule: Q01DX005 (ip), vehicle: saline with Tween-80.
Where [5] appears, read: dose: 120.0 mg/kg/injection, schedule: Q01DX005 (ip), vehicle: saline with Tween-80.
Setting [6] is: dose: 240.0 mg/kg/injection, schedule: Q01DX005 (ip), vehicle: saline with Tween-80.
Setting [7] is: dose: 50.0 mg/kg/injection, schedule: Q01DX009 (ip), vehicle: saline with Tween-80.
Where [8] appears, read: dose: 50.0 mg/kg/injection, schedule: Q01DX009 (ip), vehicle: saline.
Setting [9] is: dose: 100.0 mg/kg/injection, schedule: Q01DX009 (ip), vehicle: saline.
The mark [10] stands for this setting: dose: 200.0 mg/kg/injection, schedule: Q01DX009 (ip), vehicle: saline with Tween-80.
[11] abbreviates: dose: 200.0 mg/kg/injection, schedule: Q01DX009 (ip), vehicle: saline.
Setting [12] is: dose: 100.0 mg/kg/injection, schedule: Q01DX009 (ip), vehicle: saline with Tween-80.
Where [13] appears, read: dose: 100.0 mg/kg/injection, schedule: Q04DX003 (ip), vehicle: saline with Tween-80.
The mark [14] stands for this setting: dose: 200.0 mg/kg/injection, schedule: Q04DX003 (ip), vehicle: saline with Tween-80.

Each structure is given as a SMILES string. Values joined by “and” are separate entries in the source; they are usually repeats but may differ in a detail not shown here. Identical values can stand only once. Inconclusive results and toxic doses are left out.

Regarding `Cc1cc(C)nc(NN=O)c1`, the T/C is 104 % of control and 112 % of control (dose: 3.12 mg/kg/injection, schedule: Q01DX009 (ip), vehicle: water); 121 % of control (dose: 6.25 mg/kg/injection, schedule: Q01DX009 (ip), vehicle: water); 121 % of control (dose: 12.5 mg/kg/injection, schedule: Q01DX009 (ip), vehicle: water); 95 % of control (dose: 50.0 mg/kg/injection, schedule: Q01DX009 (ip), vehicle: water).
Consider `CCCCN(CCCC)CCCN(CCCOS(C)(=O)=O)CCCOS(C)(=O)=O`, for which the T/C was 181 % of control and 185 % of control (dose: 20.0 mg/kg/injection, schedule: Q01DX009 (ip), vehicle: saline); 231 % of control and 236 % of control (dose: 40.0 mg/kg/injection, schedule: Q01DX009 (ip), vehicle: saline).
With `CC(NC(=O)C(C)NC(=O)OC(C)(C)C)C(=O)O` (stereo not drawn), the T/C runs as follows: under setting [1], 100 % of control; under setting [2], 101 % of control; under setting [3], 101 % of control.
In the case of `CSc1nc(NC2OC(CO)C(O)C(O)C2O)c(Cl)c(=O)[nH]1` (stereo not drawn), the T/C under setting [4] was 97 % of control, the T/C under setting [5] was 97 % of control and the T/C under setting [6] was 98 % of control.
As to `CCNC(=O)OCc1ccco1`, the T/C is 92 % of control (dose: 12.5 mg/kg/injection, schedule: Q01DX009 (ip), vehicle: saline); 92 % of control (dose: 25.0 mg/kg/injection, schedule: Q01DX009 (ip), vehicle: saline); 107 % of control under setting [7].
For `CCC1=C(O)C(=O)C(C)(C)C1=O`, the T/C (dose: 50.0 mg/kg/injection, schedule: Q01DX005 (ip), vehicle: saline) is 99 % of control and 101 % of control; the T/C (dose: 100.0 mg/kg/injection, schedule: Q01DX005 (ip), vehicle: saline) is 100 % of control and 96 % of control; the T/C (dose: 200.0 mg/kg/injection, schedule: Q01DX005 (ip), vehicle: saline) is 90 % of control and 98 % of control.
Turning to `COc1ccc(CC(N)c2ccccc2)cc1` (stereo not drawn), the T/C reads like this: under setting [8], 96 % of control; under setting [9], 98 % of control.
With `CC1=CC(S)NC(=S)N1` (stereo not drawn), the T/C by setting is: under setting [4], 101 % of control; under setting [5], 105 % of control; under setting [6], 102 % of control.
Consider `CC(=O)N1CCCC2=C1CCCCC2`, for which the T/C (dose: 100.0 mg/kg/injection, schedule: Q04DX003 (ip), vehicle: saline) is 92 % of control; the T/C (dose: 200.0 mg/kg/injection, schedule: Q04DX003 (ip), vehicle: saline) is 100 % of control; the T/C (dose: 400.0 mg/kg/injection, schedule: Q04DX003 (ip), vehicle: saline) was 101 % of control.
For `CN(C)/C=N/c1c(C#N)c(-c2ccccc2)c(-c2ccccc2)n1-c1ccccc1`, the T/C under setting [7] was 97 % of control; the T/C under setting [8] is 98 % of control; the T/C under setting [9] was 93 % of control; the T/C under setting [10] is 96 % of control; the T/C under setting [11] is 87 % of control.
Take `O=C(Nc1cc(Cl)cc(Cl)c1)OC1CC2CC1C1CC3OC3C21` (stereo not drawn): the T/C is 94 % of control (dose: 50.0 mg/kg/injection, schedule: Q01DX005 (ip), vehicle: Klucel (hydroxypropylcellulose) (HPC)); 99 % of control (dose: 100.0 mg/kg/injection, schedule: Q01DX005 (ip), vehicle: Klucel (hydroxypropylcellulose) (HPC)); 92 % of control (dose: 200.0 mg/kg/injection, schedule: Q01DX005 (ip), vehicle: Klucel (hydroxypropylcellulose) (HPC)).
As for `NC(Cc1c[nH]c2ccccc12)C(=O)NCCS(=O)(=O)O` (stereo not drawn), the T/C under setting [4] was 102 % of control, the T/C under setting [5] is 104 % of control and the T/C under setting [6] was 99 % of control.
On to `O=C1CCC(N2C(=O)c3ccccc3C2=O)C(=O)N1` (stereo not drawn), for which the T/C is, setting by setting: under setting [7], 100 % of control; under setting [12], 92 % of control.
`CCC1(C)c2cc(C)c(C(C)=O)cc2C(C)(C)C1C` (stereo not drawn): the T/C (dose: 25.0 mg/kg/injection, schedule: Q01DX009 (ip), vehicle: saline with Tween-80) is 100 % of control; the T/C under setting [7] is 101 % of control; the T/C under setting [12] is 100 % of control.
With `CCCCSc1ccc(N=[N+]([O-])c2ccc(SCCCC)nc2SCCCC)c(SCCCC)n1`, the T/C is 94 % of control under setting [7], 90 % of control under setting [12] and 88 % of control under setting [10].
On to `O=C1c2ccccc2C(=O)c2c1c(O)c1cccnc1c2O`, for which the T/C is, setting by setting: under setting [1], 103 % of control; under setting [2], 100 % of control; under setting [3], 95 % of control.
Turning to `CCOC(=O)C1C2(C)NC(=O)C1(Cc1ccccc1)c1ccc(O)cc1O2` (stereo not drawn), the T/C reads like this: under setting [1], 95 % of control; under setting [2], 96 % of control; under setting [3], 95 % of control.
`Oc1cccc([C@@]23CCCC[C@H]2CN(CC2CC2)CC3)c1`: the T/C is 90 % of control under setting [1] and 111 % of control under setting [2].
On to `CN(C)CCN(C)CCC(=O)/C=C/c1ccccc1`, for which the T/C is, setting by setting: (dose: 12.5 mg/kg/injection, schedule: Q01DX001 (ip), vehicle: saline) 94 % of control; (dose: 25.0 mg/kg/injection, schedule: Q01DX001 (ip), vehicle: saline) 101 % of control; (dose: 50.0 mg/kg/injection, schedule: Q01DX001 (ip), vehicle: saline) 111 % of control.
Take `OCC(O)C1OC(c2ccco2)OC(CO)C1O` (stereo not drawn): the T/C by setting is: under setting [1], 102 % of control; under setting [2], 105 % of control; under setting [3], 105 % of control.
As for `COC(=O)C(Cc1ccccc1)NCCNC(C)=O` (stereo not drawn), the T/C runs as follows: under setting [13], 95 % of control; under setting [14], 95 % of control.
Take `O=C(C(=O)c1ccccn1)c1ccccn1`: the T/C by setting is: (dose: 50.0 mg/kg/injection, schedule: Q04DX003 (ip), vehicle: saline with Tween-80) 100 % of control; under setting [13], 105 % of control; under setting [14], 109 % of control; (dose: 400.0 mg/kg/injection, schedule: Q04DX003 (ip), vehicle: saline with Tween-80) 100 % of control.
Consider `CCc1ccc2nc3ccccc3c(NCCCCCCNc3c4ccccc4nc4ccc(CC)cc34)c2c1`, for which the T/C is, setting by setting: (dose: 0.62 mg/kg/injection, schedule: Q01DX009 (ip), vehicle: other) 100 % of control; (dose: 1.25 mg/kg/injection, schedule: Q01DX009 (ip), vehicle: other) 114 % of control; (dose: 2.5 mg/kg/injection, schedule: Q01DX009 (ip), vehicle: other) 105 % of control; (dose: 5.0 mg/kg/injection, schedule: Q01DX009 (ip), vehicle: other) 116 % of control; (dose: 10.0 mg/kg/injection, schedule: Q01DX009 (ip), vehicle: other) 124 % of control.
Consider `CON(Cc1ccc(C(=O)NC(C)C)cc1)Cc1ccc(C(=O)NC(C)C)cc1`, for which the T/C (dose: 25.0 mg/kg/injection, schedule: Q01DX009 (ip), vehicle: other) is 94 % of control; the T/C (dose: 50.0 mg/kg/injection, schedule: Q01DX009 (ip), vehicle: other) is 100 % of control; the T/C (dose: 100.0 mg/kg/injection, schedule: Q01DX009 (ip), vehicle: other) is 92 % of control.
As for `CCc1ccccc1NC(=O)C(=O)CC(=O)c1ccc(Cl)s1`, the T/C (dose: 100.0 mg/kg/injection, schedule: Q04DX002 (ip), vehicle: saline with Tween-80) is 100 % of control; the T/C (dose: 200.0 mg/kg/injection, schedule: Q04DX002 (ip), vehicle: saline with Tween-80) was 102 % of control; the T/C (dose: 400.0 mg/kg/injection, schedule: Q04DX002 (ip), vehicle: saline with Tween-80) was 103 % of control.
For the compound `CNC(=O)OCc1cc(C)cc(C)c1-c1ccco1`, the T/C under setting [7] is 101 % of control, the T/C under setting [12] is 98 % of control and the T/C under setting [10] was 95 % of control.
As to `CC(=O)OC1CCC2(C)OC(=O)CC2C1` (stereo not drawn), the T/C reads like this: under setting [1], 98 % of control; under setting [2], 100 % of control; under setting [3], 100 % of control.
Take `C/C(=N\NC(=S)N1CCC(C)CC1)c1nccnc1C`: the T/C is, setting by setting: (dose: 6.0 mg/kg/injection, schedule: Q01DX005 (ip), vehicle: Klucel (hydroxypropylcellulose) (HPC)) 108 % of control; (dose: 12.0 mg/kg/injection, schedule: Q01DX005 (ip), vehicle: Klucel (hydroxypropylcellulose) (HPC)) 106 % of control; (dose: 25.0 mg/kg/injection, schedule: Q01DX005 (ip), vehicle: Klucel (hydroxypropylcellulose) (HPC)) 106 % of control.
With `O=C(O)CCC(=O)NCCNC(=O)CCC(=O)O`, the T/C reads like this: under setting [8], 101 % of control; under setting [9], 101 % of control; under setting [11], 104 % of control.
